Structures are written as SMILES. Activity calls are given as the source filed them. The rule behind the calls is not given here.

In this experiment the test system is S. cerevisiae tim10-1 mutant growth, luminescence. The experiment in a line: tim10-1 yeast growth inhibition potency – luminescence, S. cerevisiae, uHTS hits, dose response (AID 493003).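 Note: yeast growth measured after about 22 hours at 25 °C.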

In the case of `Cc1nn(Cc2ccc(Cl)cc2)c(C)c1NC(=O)c1c(-c2ccccc2)noc1C`, the half-maximal inhibitory concentration (IC50) is 76.1 µM. In the case of `O=C(Nc1ccc(C(=O)N2CCN(c3ccc(F)cc3)CC2)cc1)C1=CSCCO1`, the concentration for half-maximal inhibition (IC50) was 44.3 µM.

Consider `Cc1cc(N/N=C/c2ccccc2O)nc(-c2ccccc2O)n1`, for which the half-maximal inhibitory concentration (IC50) is 76.6 µM.

With `COc1ccc(N2CCN(C(=O)Nc3cccc(C(F)(F)F)c3)CC2)cc1`, the concentration for half-maximal inhibition (IC50) was 29.1 µM.

On to `COc1ccc2cc3cc(C(=O)NCCN4CCc5ccccc5C4)oc3nc2c1`, for which the concentration for half-maximal inhibition (IC50) is 0.69 µM. In the case of `C=CCn1c(SCc2c(F)cccc2Cl)nnc1-c1ccco1` it was 34.8 µM; in that of `S=c1[nH]nc(Nc2ccc(Cl)cc2)s1`, 20.8 µM; in that of `CCc1ccc(NC(=S)N(Cc2ccccc2)Cc2ccccn2)cc1`, 38 µM. `Brc1ccc(-c2cn3c(n2)CCc2ccc4cccnc4c2-3)cc1`: the IC50 was > 100 µM (inactive).

In the case of `C=CCN(CC=C)S(=O)(=O)c1ccc(NC(=O)COc2ccccc2OC)cc1`, the IC50 was 77.3 µM. For `N/C(=N\OC(=O)c1ccccc1Cl)c1cccc([N+](=O)[O-])c1`, the 50% inhibitory concentration (IC50) was 23 µM. On to `COc1ccccc1C(=O)Nc1ccc(S(=O)(=O)N2CCCCC2)cc1`, for which the IC50 was 24.9 µM.

With `CN(C1CCCCC1)S(=O)(=O)c1ccc(NC(=O)c2ccc(Br)o2)cc1`, the half-maximal inhibitory concentration (IC50) is 30.6 µM.

With `CC(C)Nc1nnc(Sc2ccc(Cl)cc2[N+](=O)[O-])s1`, the IC50 is 8.34 µM. In the case of `S=C(Nc1ccc(Cl)cc1)c1nc2ccccc2[nH]1` it was 23.7 µM.

Regarding `C[C@@H]1CC=C[C@H]2[C@H]1C(=O)N(Cc1ccccc1)[C@H]2c1ccc(-c2ccoc2)cc1F`, the IC50 was 12.4 µM. With `NC(=S)N/N=C/c1ccccc1OCCSc1ccc(Cl)cc1` the figure was 74.7 µM; with `CCOC(=O)Cc1csc(NC(=O)CSc2ccc(Br)cc2)n1`, 37.8 µM. In the case of `c1ccc(-c2csc3ncnc(-n4cnc5ccccc54)c23)cc1`, the IC50 was 15.8 µM. As to `CCOC(=O)c1ccc2[nH]c3c(c2c1)CCCC3`, the IC50 was 34.4 µM. As for `Cc1cccc(C(=O)O/N=C(/c2ccccc2)c2ccncc2)c1`, the IC50 is 26.1 µM.

For `COc1ccc(NC(C)(C)c2nnnn2-c2c(C)cccc2C)cc1`, the half-inhibitory concentration (IC50) is 36.1 µM. For `CCOc1cc(/C=C/C(=O)c2ccc(C)cc2)ccc1OCC(=O)N(C)C`, the IC50 was 22 µM. For the compound `CCOC(=O)c1ccc(N2C(=O)C=CC2=O)cc1`, the IC50 is 2.75 µM.

Turning to `CCCC(=O)Nn1cnc2c(c1=O)C1(CCCC1)Cc1ccccc1-2`, the IC50 is 75.2 µM. With `CC(C)(C)NC(=O)NC(=O)COC(=O)CCC1CCCCC1`, the 50% inhibitory concentration (IC50) is 69 µM. Turning to `CCCCn1nc(NC(=O)c2cccs2)c2cc3ccccc3nc21`, the 50% inhibitory concentration (IC50) is 73.9 µM. For `C=CCN(C(=O)c1cccc(S(=O)(=O)N2CCN(C)CC2)c1)c1nc(-c2ccccc2)cs1`, the 50% inhibitory concentration (IC50) is 46.8 µM.

Turning to `CN1CCCN(C(c2ccccc2)c2ccc(Cl)cc2)CC1` (configuration not stated), the IC50 is 30.9 µM. Take `Nc1cc(Cl)ccc1Oc1ccc2ccccc2c1`: the IC50 is 23.1 µM.

On to `Cc1ccc(C)c(S(=O)(=O)ON2C(=O)c3ccccc3C2=O)c1`, for which the IC50 was 22.1 µM. In the case of `O=C(NC(=S)NCc1ccccc1)c1ccccc1F` it was 66.5 µM; in that of `Cc1ccc(C(=O)NC(=S)Nc2ccccc2C)cc1`, 44.5 µM; in that of `Cc1nn2c3ccccc3nc2c2ccccc12`, 77.1 µM.

`Nc1ccc2oc(-c3cccc(Br)c3)nc2c1`: the concentration for half-maximal inhibition (IC50) was 28.3 µM. In the case of `N/C(=N\OC(=O)Cc1ccc([N+](=O)[O-])cc1)c1cccc(Br)c1` it was 27.4 µM. Take `Cc1nn(-c2ccccc2)c(Cl)c1C(=O)N1CCN(c2ncnc3c2cnn3-c2ccccc2)CC1`: the IC50 was > 100 µM (inactive).

Regarding `COc1ccc(OC)c(N=c2ssnc2Cl)c1`, the IC50 is 21 µM.

Consider `Cc1nn(C)c(C)c1NC(=O)Nc1ccc(Cl)c(Cl)c1`, for which the 50% inhibitory concentration (IC50) was 22.4 µM. In the case of `Clc1ccc(Cl)c2sc(N3CCCC3)nc12` it was 35.7 µM; in that of `N#C/C(=C\c1ccccc1)C(=O)Nc1cc(S(=O)(=O)N2CCOCC2)ccc1N1CCCC1`, 31.3 µM; in that of `Oc1ccc(-c2nccc(-c3ccc(Cl)cc3)n2)cc1`, 24.6 µM. Turning to `Cc1c(C)n(Cc2ccccc2)c2ccc(C(=O)OCCN(C)C)cc12`, the half-maximal inhibitory concentration (IC50) was 32.1 µM.

For `O=C(c1ccc2nc(N3CCOCC3)sc2c1)N1CCC(Cc2ccccc2)CC1`, the half-inhibitory concentration (IC50) is 16.6 µM. With `C/C=C(/C(=C/C)c1ccc(O)cc1)c1ccc(O)cc1` the figure was 25.6 µM. On to `Cc1nc(Nc2ccc(Cl)cc2Cl)sc1C(=O)Nc1ccccc1`, for which the IC50 is > 100 µM (inactive). With `CCCc1ccc(-c2c(C)sc(N)c2C#N)cc1` the figure was 19.2 µM; with `Cc1c(C)n(C)c2ccc(C(=O)Nc3cccc4ccccc34)cc12`, > 100 µM (inactive); with `Cc1cc(N/N=C/c2ccc(Cl)cc2)nc(NCc2ccccc2)n1`, 36.6 µM. With `CC(C)NC(=S)N/N=C1\CCCCc2ccccc21` the figure was 13.9 µM. With `COc1cccc2sc(Nc3nc(-c4ccccn4)cs3)nc12` the figure was 20.2 µM. As to `c1ccc(-c2cc(-c3nc4ccccc4[nH]3)c3ccccc3n2)cc1`, the IC50 was 49.6 µM. As to `O=C(Nc1ccc(N2CCN(C(=O)c3cccs3)CC2)cc1)c1cccc(F)c1`, the half-maximal inhibitory concentration (IC50) was 40.5 µM. `C/C(=N\N=c1/sc2ccccc2n1C)c1ccccn1`: the IC50 is 45.7 µM.

Take `COc1cc2c(cc1OC)CN(C(=O)c1ccc(-c3ccccc3)cc1)CC2`: the 50% inhibitory concentration (IC50) is 47.3 µM. With `O=C(Nc1ccccc1)c1cccnc1NCCc1ccccc1` the figure was 73.3 µM.

As for `Cc1nn(C)c(C(=O)NC(=S)Nc2ccc([N+](=O)[O-])cc2)c1Cl`, the 50% inhibitory concentration (IC50) is 74.5 µM. As to `Cc1[nH]n(-c2ccccc2)c(=O)c1C(c1ccccc1[N+](=O)[O-])C(C#N)C#N` (configuration not stated), the IC50 is 18.2 µM.

Consider `COc1ccc2[nH]c3c(=O)n4c(nc3c2c1)SCCC4`, for which the IC50 is 40.7 µM. With `Cc1ccc2nc(N3CCN(Cc4nnnn4Cc4ccccc4)CC3)c(C#N)cc2c1`, the half-maximal inhibitory concentration (IC50) was 81.3 µM. With `O=C(O)c1ccc(C=C(c2nc3ccccc3s2)c2nc3ccccc3s2)cc1` the figure was > 100 µM (inactive); with `COc1ccc(NS(=O)(=O)c2ccc3oc4ccccc4c3c2)cn1`, 28.3 µM. In the case of `CCOC(=O)Cc1nnc2c(Nc3ccc(Cl)cc3)nc3nonc3n12` it was 41.1 µM; in that of `Cc1cc(C)n(CC(O)Cn2c3ccc(Br)cc3c3cc(Br)ccc32)c(=O)n1` (configuration not stated), 19.3 µM. With `CCn1nc(C)c(C(=O)Nc2cc(Oc3ccc(Cl)cc3)cc([N+](=O)[O-])c2)c1C`, the IC50 was 43.1 µM. With `COc1ccc(-c2nncnn2)cc1` the figure was 8.84 µM; with `S=C(NN=C1C2CC3CC(C2)CC1C3)Nc1ccccc1`, 19.4 µM; with `Cc1ccc(NC(=O)c2ccc(Cl)c(N3C(=O)C=CC3=O)c2)cc1`, 8.63 µM. As for `COc1ccc(/C(N)=N/OC(=O)CC2CCCCC2)cc1OC`, the concentration for half-maximal inhibition (IC50) was 24.2 µM. On to `NS(=O)(=O)c1ccc(NC(=S)Nc2ccc(Br)c(Cl)c2)cc1`, for which the 50% inhibitory concentration (IC50) was 31.8 µM. In the case of `Cc1ccccc1/C=C/C(=O)c1ccc([N+](=O)[O-])o1` it was 3.76 µM. Regarding `O=C(ON=C1CCN(S(=O)(=O)c2ccccc2)CC1)c1ccc(F)cc1`, the IC50 is 26.4 µM. In the case of `O=C1C2C(c3ccccc3)CC=CC2[C@H](c2ccc3ccccc3c2)N1Cc1ccccc1` (some centres not stated), the half-inhibitory concentration (IC50) was 22.9 µM. In the case of `C=CCc1cccc(CNc2nc3ccccc3n2C(C)C)c1O` it was 61.1 µM; in that of `CCOC(=O)c1c(CSc2ccc(C)cc2)n(C)c2cc(Br)c(O)c(CN(C)C)c12`, 15.9 µM. In the case of `COc1ccc(-n2c(CNc3ccc(C)cc3)nnc2SCc2ccccc2)cc1` it was 26.4 µM. Take `C=CCNc1nc(-c2ccccn2)nnc1-c1ccccc1`: the IC50 was 29.3 µM.

In the case of `Cc1cc(Nc2cccc(F)c2)nc(-c2ccccc2O)n1`, the IC50 was 64.2 µM. With `Nc1nc(N)c(C=Nc2ccc(Br)cc2)c(Nc2ccc(Br)cc2)n1`, the 50% inhibitory concentration (IC50) was 16.8 µM.

For `COc1ccc(C2NC(=S)NC3=C2CCc2cc(OC)ccc23)cc1` (configuration not stated), the IC50 was 36.7 µM. Take `COc1ccc(-c2cc(C(=O)N3CCN(c4ncccn4)CC3)c3ccccc3n2)c(OC)c1`: the half-maximal inhibitory concentration (IC50) was 28.5 µM.

As to `Cc1ccc(OCC(=O)O/N=C(\N)Cc2ccc([N+](=O)[O-])cc2)cc1C`, the IC50 is 25.1 µM. As to `CNC(=O)c1nnsc1S(=O)(=O)c1ccc(Cl)cc1`, the IC50 is 16.4 µM. In the case of `COc1ccc2cc3cc(C(=O)Nc4ccccc4N4CCN(C)CC4)oc3nc2c1` it was 17.5 µM; in that of `Cc1ccc(O)c(-c2cc(-c3cccc(F)c3)n[nH]2)c1`, 97.9 µM. For `COc1ccc(OCC(=O)O/N=C(\N)Cc2ccc(Cl)cc2)cc1`, the 50% inhibitory concentration (IC50) is 38.4 µM. Turning to `CCN(CC)CCN(C(=O)c1ccc2c(c1)CCCC2)c1nc2ccc(OC)cc2s1`, the IC50 is 22 µM. Consider `Cn1c2ccccc2c(=O)c2ccc(C#CC3(N)CCCCC3)cc21`, for which the IC50 is 27.1 µM. In the case of `O=C(Nc1ccc(F)cc1)c1cccc2c1C(=O)N(Cc1ccccn1)C2` it was 18 µM; in that of `COc1cc(OC)c(C(=O)O/N=C(\N)c2ccc(C)cc2)cc1OC`, 14.5 µM; in that of `CSc1ccc2nnc(-c3cccc(F)c3)n2n1`, 29.6 µM. With `Clc1cccc(CN2CCc3c([nH]c4ccccc34)C2)c1` the figure was 30.7 µM; with `Cc1nn(Cc2ccc(Cl)cc2)c(C)c1NC(=O)c1ccc([N+](=O)[O-])cc1`, 34.2 µM.

Consider `Cc1nn(Cc2c(F)c(F)c(F)c(F)c2F)c(C)c1NC(=O)c1ccc(COc2ccccc2Cl)o1`, for which the concentration for half-maximal inhibition (IC50) was 60.3 µM. With `Nc1nc(Nc2cccc(C(F)(F)F)c2)nc(C(F)(F)F)n1` the figure was 23.4 µM; with `FC(F)(F)c1ccc(NC(=S)NC2CCCCC2)cc1`, 27.7 µM; with `Oc1ccc(-c2nccc(-c3ccc(Cl)cc3Cl)n2)cc1`, 37.1 µM. With `O=C(Nc1cc(Sc2ccccn2)cc([N+](=O)[O-])c1)c1cccc(F)c1` the figure was 88 µM. Take `Cc1nonc1C(=O)N/N=C/c1ccc(O)cc1`: the half-maximal inhibitory concentration (IC50) was 30.3 µM. Take `Cc1ccc(NC(=S)/N=C(\N)Nc2nc(C)c3cc(C)ccc3n2)c(C)c1`: the IC50 was 12.7 µM. In the case of `CCC(=O)Oc1ccc(-c2nc(-c3cccnc3)no2)cc1` it was 43.4 µM. In the case of `Oc1cc(-c2ccccc2)c2ccccc2c1`, the IC50 is 74.2 µM.

The values above are taken from PubChem BioAssay AID493003 (Sanford-Burnham Center for Chemical Genomics, 2010).
